According to patent US20090274773A1, “ANTIPROLIFERATIVE COMBINATION COMPRISING CYC-682 AND A CYTOTOXIC AGENT” (Cyclacel Limited, priority 2005, published 2009):

How the values were obtained:
Type in all cases: cell-based, human
NSCLC cell line H1299 = experiment: CNDAC combinations (alamar blue, Calcusyn Combination Index); settings: for Interaction with CNDAC (in words), summary of Table 3: combination with CNDAC, regime not specified; for Combination Index at ED50, Concomitant / Combination Index at ED75, Concomitant / Combination Index at ED90, Concomitant: simultaneous treatment 72 h
Description: Experiments in the NSCLC cell lines H1299 or RERF-LC-MA were performed in 96-well plates, with cells seeded at a density of 3,000/well, in DMEM containing 10% (v/v) FCS. Stock solutions of all drugs were made up in dimethylsulfoxide (DMSO), with the exception of gemcitabine, which was dissolved in 0.9% (w/v) sterile saline solution.
For experimental assessment of potential synergistic interactions, the concomitant treatment regime involved simultaneous treatment of cells with CNDAC and the other agent under investigation for 72 h, alongside suitable controls of cells treated with the individual compounds alone for 72 hr. In the sequential treatment regimes, one drug was added to the cells 2 h after plating, and left for 24 h. Media was then aspirated, replaced with fresh media containing the second drug and incubated for 72 h. The two individual treatment controls for the sequential treatment regime involved substituting one of the drug treatments with drug-free media. […] Drug interactions were analysed using the Calcusyn software package (BioSoft, Cambridge, U.K.) described below.

HCC2998 = experiment: MTT growth inhibition assay, single agent; settings: Homo sapiens, HCC 2998, 24 hours exposure, read-out: Antiproliferative effects IC50s (MTT assay)
Description: (§1) All cell lines were obtained from the ATCC (Rockville, Md.). Cells were grown as monolayers in RPMI medium supplemented with 10% fetal calf serum (Invitrogen, Cergy-Pontoise, France), 2 mM glutamine, 100 units/ml penicillin and 100 μg/ml streptomycin. All cells were split twice a week using trypsin/EDTA (0.25% and 0.02%, respectively; Invitrogen, Cergy-Pontoise, France) and seeded at a concentration of 2.5×10^4 cells/ml. All cell lines were tested regularly for Mycoplasma contamination by PCR using a Stratagene kit (La Jolla, Calif.).
(§2) The MTT assay was carried out as described previously (Hansen M B, Nielsen S E, Berg K. Re-examination and further development of a precise and rapid dye method for measuring cell growth/cell kill. J Immunol Methods. 1989 May 12; 119(2):203-10). In brief, cells were seeded in 96-well tissue culture plates at a density of 2×10^3 cells/well. Cell viability was determined after a 120-hour incubation, by the calorimetric conversion of yellow, water-soluble tetrazolium MTT (3-[4,5-dimethylthiazol-2-yl]-2,5-diphenyltetrazolium bromide; Sigma, Saint-Quentin Fallavier, France), into purple, water-insoluble formazan. This reaction is catalyzed by mitochondrial dehydrogenases and is used to estimate the relative number of viable cells (Mosmann, T, Rapid calorimetric assay for cellular growth and survival: application to proliferation and cytotoxicity assays. J Immunol Methods. 1983 Dec. 16; 65 (1-2):55-63). Cells were incubated with 0.4 mg/ml MTT for 4 hours at 37° C. After incubation, the supernatant was discarded, the cell pellet was resuspended in 0.1 ml of DMSO and the absorbance was measured at 560 nm using a microplate reader (Dynatech, Michigan). Wells with untreated cells or with drug-containing medium without cells were used as positive and negative controls, respectively. Growth inhibition curves were plotted as a percentage of untreated control cells.
(§3) The cells were seeded at 2×10^3 cells/well in 96-well plates and treated 24 hours later with increasing concentrations of CYC682. After incubation times of 1 hour, 24 hours or 48 hours, the cells were washed and post-incubated in drug-free medium for 72 hours. Growth inhibition was then determined by the MTT assay.

HT29 = experiment: MTT growth inhibition assay, single agent; settings: Homo sapiens, HT-29, 24 hours exposure, read-out: Antiproliferative effects IC50s (MTT assay)
Description: as §1, §2, §3

MCF7 = experiment: MTT growth inhibition assay, single agent; settings: Homo sapiens, 24 hours exposure, read-out: Antiproliferative effects IC50s (MTT assay)
Description: as §1, §2, §3

IGROV1 = experiment: MTT growth inhibition assay, single agent; settings: Homo sapiens, IGROV-1, 24 hours exposure, read-out: Antiproliferative effects IC50s (MTT assay)
Description: as §1, §2, §3

HCT116 = experiment: MTT growth inhibition assay, single agent; settings: Homo sapiens, HCT-116, 24 hours exposure, read-out: Antiproliferative effects IC50s (MTT assay)
Description: as §1, §2, §3

HOP62 = experiment: MTT growth inhibition assay, single agent; settings: Homo sapiens, HOP-62, 24 hours exposure, read-out: Antiproliferative effects IC50s (MTT assay)
Description: as §1, §2, §3

HOP92 = experiment: MTT growth inhibition assay, single agent; settings: Homo sapiens, HOP-92, 24 hours exposure, read-out: Antiproliferative effects IC50s (MTT assay)
Description: as §1, §2, §3

COLO205 = experiment: MTT growth inhibition assay, single agent; settings: Homo sapiens, COLO 205, 24 hours exposure, read-out: Antiproliferative effects IC50s (MTT assay)
Description: as §1, §2, §3

MDA-MB-435 = experiment: MTT growth inhibition assay, single agent; settings: Homo sapiens, 24 hours exposure, read-out: Antiproliferative effects IC50s (MTT assay)
Description: as §1, §2, §3

OVCAR1 = experiment: MTT growth inhibition assay, single agent; settings: Homo sapiens, 24 hours exposure, read-out: Antiproliferative effects IC50s (MTT assay)
Description: as §1, §2, §3

[1] = named agent in combination with CNDAC, H1299
[2] = named agent in combination with CNDAC, H1299, CNDAC 24 h then other agent 72 h
[3] = named agent in combination with CNDAC, H1299, named agent 24 h then CNDAC 72 h

Row | IC50 (HCC2998) [nM] | IC50 (HT29) [nM] | IC50 (MCF7) [nM] | IC50 (HCT116) [nM] | IC50 (COLO205) [nM] | IC50 (MDA-MB-435) [nM] | IC50 (OVCAR1) [nM] | Structure (SMILES) | Interaction with CNDAC (in words), summary of Table 3 (NSCLC cell line H1299) | Combination Index at ED50, Concomitant (NSCLC cell line H1299; [1]) | Combination Index at ED75, Concomitant (NSCLC cell line H1299; [1]) | Combination Index at ED90, Concomitant (NSCLC cell line H1299; [1]) | IC50 (IGROV1) [nM] | IC50 (HOP62) [nM] | IC50 (HOP92) [nM] | further results
1 | 4 ± 1 | 10 ± 2 | 10 ± 4 | 10 ± 20 | 6 ± 1 | 10 ± 2 | 50000 ± 120 | CC(=O)O[C@@]12CO[C@@H]1C[C@H](O)[C@@]1(C)C(=O)[C@H](O)C3=C(C)[C@@H](OC(=O)[C@H](O)[C@@H](NC(=O)OC(C)(C)C)c4ccccc4)C[C@@](O)([C@@H](OC(=O)c4ccccc4)[C@H]21)C3(C)C [Docetaxel] | synergistic drug interactions | 0.93 | 1.13 | 2.01 | 20 ± 10 | 20 ± 40 | 5 ± 1 | 
2 | 700 ± 140 | 1070 ± 160 | 700 ± 100 | 100 ± 20 | 1500 ± 500 | 2000 ± 400 | 1000 ± 200 | COc1cccc2c1C(=O)c1c(O)c3c(c(O)c1C2=O)C[C@@](O)(C(=O)CO)C[C@@H]3O[C@H]1C[C@H](N)[C@H](O)[C@H](C)O1 [Doxorubicin] | synergistic drug interactions | 0.63 | 1.14 | 2.75 | 1300 ± 300 | 140 ± 40 | 100 ± 50 | Interaction with CNDAC at ED50 (in words) (NSCLC cell line H1299; H1299, concomitant treatment): synergy; Interaction with CNDAC at ED50 (in words) (NSCLC cell line H1299; H1299, pre-treatment with named agent): synergy; Combination Index at ED75, CNDAC pretreatment (NSCLC cell line H1299; [2]): 1.24; Combination Index at ED90, CNDAC pretreatment (NSCLC cell line H1299; [2]): 2.23; Combination Index at ED50, CNDAC pretreatment (NSCLC cell line H1299; named agent in combination with CNDAC, H1299, CNDAC 24 h then other agent 72 h, C.I. <1 synergistic, 1 additive, >1 antagonistic): 0.95; Combination Index at ED50, Other (named agent) pretreatment (NSCLC cell line H1299; [3]): 0.64; Combination Index at ED75, Other (named agent) pretreatment (NSCLC cell line H1299; [3]): 0.83; Combination Index at ED90, Other (named agent) pretreatment (NSCLC cell line H1299; [3]): 1.63
